From patent publication US10959974B2, “Ingenol compounds and use thereof in anti-HIV latency treatment” (priority 2015, dated 2021)
In brackets after ≈: the same amount, converted by molar mass. Like-named read-outs stand apart in the source and are kept apart here.

What was measured:
[1] = test system: latent HIV in J-Lat-A10.6 cells; assay: Activation of latent HIV in J-Lat-A10.6 cells, GFP fluorescence / flow cytometry; type: cell-based, human; conditions: 48 h
Method: (§1) The HIV latent cell model of the present invention comprises: a human T cell 10.6 clone strain carrying a green fluorescent protein gene (J-Lat-A10.6), which is provided by the National Institute of Health Research AIDS Reference Reagent Planning Department, established by Dr. Eric Verdin of the University of California.
(§2) The cells are small and the spherical cells are cultured in suspension. […]
(§3) J-Lat-A10.6 or C11 cells were seeded in 96-well plates at 2×10E4 cells per well, and 100 μl of 1640 medium (Gibco) containing 10% FBS (Gibco) was added to each well. After the cells were treated with the compounds in Examples 1-7 for 48 h, the green fluorescence expression of the cells was observed under a fluorescence microscope, the cells were collected for flow cytometry detection, and the proportion of fluorescent cells was analyzed.
(§4) J-Lat-A10.6 or C11 cells were seeded in 96-well plates at 2×10E4 cells per well, and 100 μl of 1640 medium (Gibco) containing 10% FBS (Gibco) was added to each well. After treatment with different concentrations of compounds (such as the compounds in Examples 1-7) and Prostratin for 48 h, the cells were collected for flow cytometry detection and the proportion of fluorescent cells was analyzed.

latent HIV in C11 cells = assay: Activation of latent HIV in C11 cells, GFP fluorescence / flow cytometry; type: cell-based; conditions: for EC50: read-out: EC50 of activation of latent HIV-1
Method: The cells are small and the spherical cells are cultured in suspension. Human T cell Jurkat […] cells are transfected by the retroviral vector carrying the green fluorescent protein gene HIV-R7/E-/GFP and sorted (Jordan A, Bisgrove D, Verdin E. HIV reproducibly establishes a latent infection after acute infection EMBO J 22:1868-1877, 2003); another established HIV latent screening model C11 clone is obtained by the twice of the sorting and activation on HIV lentivirus-infected T cells. (Chinese patent: 200810038851. X).
as §3, §4

[2] = test system: latent HIV in J-Lat-A10.6 or C11 cells; assay: Activation of HIV expression in latent cells, flow cytometry of green fluorescent cells (cell line not given); type: cell-based, human; conditions: treated 48 h
Method: as §1, §2, §3, §4

[3] = test system: cells in the known HIV-infected latent reservoir; assay: Treatment of cells of the HIV-infected latent reservoir with compound, then antiretroviral drugs; type: cell-based; conditions: compound treatment followed by antiretroviral drugs, versus untreated viral latent reservoir
[4] = test system: resting CD4+ T cells isolated from the peripheral blood of AIDS patients; assay: Activation of latent HIV in peripheral blood resting CD4+ T cells of AIDS patients, real-time PCR of HIV-1 mRNA; type: cell-based, human; conditions: 0.005 μM, 18 h; compared with control and 5 μg/ml PHA treated cells
Method: The resting CD4+ T cells isolated from the peripheral blood of 5 AIDS patients were treated with 5 μg/ml PHA (phytohemagglutinin) (positive control) and 0.005 μM compound 16A for 18 h, and then HIV-1 mRNA was extracted from resting CD4+ T cells and the medium, real-time PCR was used to detect the change of HIV-1 mRNA expression level in resting CD4+ T cells and medium, respectively.

SMILES: CC(=O)O[C@@]12C[C@@H](C)[C@@]3(O)[C@@H](C=C(CO)C[C@]4(O)C(=O)C(C)=C[C@@H]34)[C@@H]1C2(C)C [Prostratin, reference compound]
- EC50 ([1]; Homo sapiens, flow cytometry, read-out: EC50 of activation of latent HIV-1): 0.86 µM
- EC50 (latent HIV in C11 cells; Human immunodeficiency virus 1, 48 h): 0.76 µM

SMILES: CCCCCCCCCCCC(=O)O[C@@]12C[C@@H](C)[C@]34C=C(C)[C@H](OC(=O)C(C)C(C)C)[C@@]3(O)[C@H](O)C(CO)=C[C@H](C4=O)[C@@H]1C2(C)C (stereo partly drawn) [Example 1, 3-O-(2,3-dimethylbutanoyl)-13-O-dodecanoyl ingenol]
- EC50 ([2]; flow cytometry, J-Lat-A10.6 or C11 cells (not specified for Table 1)): 2.6 ng/mL (≈ 4.03 nM)
- activation rate ([2]; proportion of fluorescent cells, J-Lat-A10.6 or C11 cells (not specified), untreated control 2%): 93%
- number of viral latent reservoir [3]: significantly lower
- proportion of green fluorescent positive cells ([1]; 10 nM, background about 1-2%): 90%
- intracellular activated HIV-mRNA [4]: significantly higher
- proportion of green fluorescent positive cells (latent HIV in C11 cells; 10 nM, 48 h, C11 cells): ~80%
- EC50 (latent HIV in C11 cells; C11 cells, 48 h, flow cytometry): 0.00353 µM
